Experimental data reported in EP0490549B1, “Stabilisation of pharmaceutical compositions comprising calcitonin” (CIBA-GEIGY AG, priority 1990, dated 1995).
“Also recorded” adds a separate entry of the source. Like-named read-outs stand apart in the source and are kept apart here.

Columns and labels:
[1] = Stability of aqueous hCT solutions against fibrillation or precipitation (solution remains clear on storage); details: for solution is stable for: Example 1 repeated (5 mg/ml hCT) with acetic acid replaced by the named acid; for ability of an acid to produce a stable solution of hCT (solution remains clear): storing for 24 hours at 25°C
Method: The ability of an acid to produce a stable solution can be readily determined by making up a solution and storing it for 24 hours at 25°C.
Example 1 is repeated except that the solutions also contain 0.5% hydroxypropylmethylcellulose.

[2] = as above; format: physicochemical; details: 5 mg/ml hCT; acetic acid 0.0001%, 0.001%, 0.01%, 0.1% and 1.0%; after 8 months
[3] = Extrapolated time of fibrillation (ln/ln plot of fibrillation time against hCT concentration); details: at 4°C; solutions with 5-9 mg/ml hCT in 0.001% acetic acid; from measurements up to 100 mg/ml hCT using the ln/ln plot
[4] = additive mixed with the hCT solution after preparation

Row | Compound | solution is stable for [1] | ability of an acid to produce a stable solution of hCT (solution remains clear) [1] | further results
1 | O=C(O)C(O)C(O)C(=O)O (racemic) [DL-tartaric acid] | over 4 days | form stable solutions | –
2 | N[C@H](CCC(=O)O)C(=O)O [D-glutamic acid] | – | do not form stable solutions | –
3 | N[C@@H](CCC(=O)O)C(=O)O [L-glutamic acid] | over 4 days | – | –
4 | O=C(O)C(O)C(O)C(=O)O [L-α-tartaric acid] | over 4 days | form stable solutions | –
5 | O=C(O)CCCCC(=O)O [adipic acid] | over 4 days | form stable solutions | –
6 | O=C1O[C@H]([C@@H](O)CO)C(O)=C1O [ascorbic acid] | over 4 days | form stable solutions | –
7 | N[C@@H](CC(=O)O)C(=O)O [aspartic acid] | – | do not form stable solutions | –
8 | CC(C)(C)CC(C)(C)c1ccc(OCCOCC[N+](C)(C)Cc2ccccc2)cc1 [benzethonium chloride] | – | – | effect of additive on the stability of the hCT solution [1, 4]: do not diminish the stability; also recorded: improve the stability
9 | [H]/N=C(\N/C(=N/[H])NCCCCCCNC(=N)NC(=N)Nc1ccc(Cl)cc1)Nc1ccc(Cl)cc1 [chlorhexidine diacetate] | – | – | effect of additive on the stability of the hCT solution [1]: do not diminish the stability
10 | O=C(O)CC(O)(CC(=O)O)C(=O)O [citric acid] | over 4 days | form stable solutions | –
11 | CCO [ethanol] | – | – | effect of additive on the stability of the hCT solution [1]: do not diminish the stability
12 | O=C(O)CN(CCN(CC(=O)O)CC(=O)O)CC(=O)O [ethylene - diamine tetraacetic acid] | – | form stable solutions | –
13 | O=CO [formic acid] | over 4 days | form stable solutions | –
14 | O=C(O)[C@H](O)[C@@H](O)[C@H](O)[C@H](O)CO [gluconic acid] | – | do not form stable solutions | –
15 | O=C(O)CCCC(=O)O [glutaric acid] | over 4 days | form stable solutions | –
16 | CC[C@H](C)[C@H](NC(=O)[C@H](C)NC(=O)[C@@H](NC(=O)[C@H](CCC(N)=O)NC(=O)[C@@H]1CCCN1C(=O)[C@H](Cc1ccccc1)NC(=O)[C@@H](NC(=O)[C@H](Cc1c[nH]cn1)NC(=O)[C@H](Cc1ccccc1)NC(=O)[C@H](CCCCN)NC(=O)[C@H](CC(N)=O)NC(=O)[C@H](Cc1ccccc1)NC(=O)[C@H](CC(=O)O)NC(=O)[C@H](CCC(N)=O)NC(=O)[C@@H](NC(=O)[C@H](Cc1ccc(O)cc1)NC(=O)[C@@H](NC(=O)CNC(=O)[C@H](CC(C)C)NC(=O)[C@H](CCSC)NC(=O)[C@@H]1CSSC[C@H](N)C(=O)NCC(=O)N[C@@H](CC(N)=O)C(=O)N[C@@H](CC(C)C)C(=O)N[C@@H](CO)C(=O)N[C@@H]([C@@H](C)O)C(=O)N1)[C@@H](C)O)[C@@H](C)O)[C@@H](C)O)[C@@H](C)O)C(=O)NCC(=O)N[C@H](C(=O)NCC(=O)N[C@@H](C)C(=O)N1CCC[C@H]1C(N)=O)C(C)C [hCT] | – | – | stability of solution [2]: stable and perfectly clear; stability predicted [3]: more than 5 years
17 | Cl [hydrochloric acid] | over 4 days | form stable solutions | –
18 | OC[C@H]1O[C@@H](O[C@H]2[C@H](O)[C@@H](O)C(O)O[C@@H]2CO)[C@H](O)[C@@H](O)[C@H]1O (stereo partly shown) [lactose] | – | – | effect of additive on the stability of the hCT solution [1]: do not diminish the stability
19 | O=C(O)/C=C\C(=O)O [maleic acid] | – | do not form stable solutions | –
20 | O=C(O)CC(=O)O [malonic acid] | over 4 days | form stable solutions | –
21 | OC[C@@H](O)[C@@H](O)[C@H](O)[C@H](O)CO [mannitol] | – | – | effect of additive on the stability of the hCT solution [1]: do not diminish the stability
22 | Oc1ccccc1 [phenol] | – | form stable solutions | –
23 | O=C(O)CCC(=O)O [succinic acid] | over 4 days | – | –
24 | OC[C@H]1O[C@@](CO)(O[C@H]2O[C@H](CO)[C@@H](O)[C@H](O)[C@H]2O)[C@@H](O)[C@@H]1O [sucrose] | – | – | effect of additive on the stability of the hCT solution [1]: do not diminish the stability
25 | OC[C@H]1O[C@H](O[C@H]2O[C@H](CO)[C@@H](O)[C@H](O)[C@H]2O)[C@H](O)[C@@H](O)[C@@H]1O [trehalose] | – | – | effect of additive on the stability of the hCT solution [1]: do not diminish the stability
26 | benzalkonium chloride | – | – | effect of additive on the stability of the hCT solution [1, 4]: do not diminish the stability
27 | sulphuric acid | – | do not form stable solutions | –
